Measurements reported in publication PMC7584369, “Di-bromo-Based Small-Molecule Inhibitors of the PD-1/PD-L1 Immune Checkpoint” (Journal of Medicinal Chemistry, 2020).
Values joined by “and” are separate entries in the source; they are usually repeats but may differ in a detail not shown here. Equal values may be shown once. “Also recorded” adds a separate entry of the source. Where a name gives a salt, the structure may show the parent alone. Blank lines part the entries; values can stand above or below the compound they belong to.

What was measured:
[1] = target: T1, PD-1/PD-L1 complex (hPD-L1 and hPD-1) (Homo sapiens, UniProt Q9NZQ7); test: Homogeneous time-resolved fluorescence (HTRF) assay, Cis-Bio kit; assay type: binding
T1 construct: purchased Cis-Bio

murine PD-L1 = target: T2, murine PD-L1 (Mus musculus, UniProt Q9EP73); test: MicroScale Thermophoresis (MST) binding assay, murine PD-L1; details: mPD-L1
T2 construct: mPD-L1 residues, 19–134; made in house; host or cells: Escherichia coli BL21 (DE3)

wtPD-1/PD-L1 complex = target: T3, wtPD-1/PD-L1 complex (Homo sapiens, UniProt Q9NZQ7); test: AIDA-NMR with wild-type proteins; assay type: binding; details: wild-type PD-1
T3 construct: hPD-L1 residues, 18–134, C-terminal His-tag; His-tag (C); made in house; host or cells: Escherichia coli BL21 (DE3)

N66A-PD-1/PD-L1 complex = target: T4, N66A-PD-1/PD-L1 complex (Homo sapiens, UniProt Q9NZQ7); test: w-AIDA-NMR (weak antagonist-induced dissociation assay); assay type: binding; details: equimolar concentrations
T4 construct: hPD-L1 residues, 18–134, C-terminal His-tag; His-tag (C); made in house; host or cells: Escherichia coli BL21 (DE3)
From the text: Because HTRF is prone to “false positives”, especially aggregators and autofluorophores, we validated the results using the w-AIDA-NMR assay developed by us. […] In the w-AIDA-NMR 2D experiment, ^15N mutated PD-1 gives a characteristic pattern of peaks (Figure 2A). Peak assignment is not necessary as we observe a relative change in the intensity and positions of the reference peaks upon the addition of ligand/inhibitors. Upon the formation of the complex with PD-L1, most of the cross-peaks in the ^1H–^15N HMQC spectrum of PD-1 became broader and less intense with some of the cross-peaks disappearing (Figure 2B). If the inhibitor is capable of disrupting the complex, the resulting spectrum should come back to the reference one of PD-1 alone, as tested inhibitors are PD-L1 binders. […]
Uniform ^15N labeling was obtained by expressing proteins in the M9 minimal medium containing ^15NH4Cl as the sole nitrogen source. […] All spectra were recorded at 300 K using a Bruker Avance III 600 MHz spectrometer equipped with the nitrogen cryoprobe. The ability of tested compounds to dissociate PD-L1/(wild type, wt or N66A)PD-1 was evaluated using the (weak) antagonist-induced dissociation assay (w-AIDA-NMR). […] During the experiment, the ^1H–^15N signals were monitored by SOFAST HMQC.

primary human T cells = test: Flow cytometry of activation markers on primary T cells (PBMCs on hPD-L1 aAPCs); assay type: cell-based; details: 48 h
Experimental: The biological activity of the compound 2k was further verified on the primary T cells. For this, peripheral blood mononuclear cells (PBMCs) isolated from the blood of healthy donors were contacted with hPD-L1 aAPCs to provide TCR-mediated activation of T cells and the engagement of PD-1/PD-L1 immune checkpoint. The cells were then analyzed with flow cytometry following the gating for CD4^+ and CD8^+ T cells. The blockade of the PD-1/PD-L1 immune checkpoint was expected to increase the activation of T cells. In the experiment, atezolizumab and compound 2k were used. […] Because the prolonged activation of T cells leads to the increase of the expression of immune checkpoint molecules,[30] we have monitored the expression of PD-1 protein itself as an indicator of the late T cell activation and exhaustion. […] This confirms the bioactivity of the compound 2k in the context of primary T cells.
Blood samples from healthy donors were purchased from the Regional Center of Blood Donation and Blood Therapy in Krakow. PBMCs were isolated by a density gradient centrifugation using Pancoll human separating solutions (PAN-Biotech) and then resuspended in RPMI 1640 medium (Biowest) containing 10% FBS (Biowest).
PBMCs were added to the preseeded aAPCs at the density of 400 000 cells/well and incubated in the presence of compound 2k, DMSO, and with or without atezolizumab (5 μg/mL) as an anti-PD-L1 monoclonal antibody. After 48 h, cells were detached using TrypLe Select Enzyme (Thermo Fisher Scientific), collected into 5 mL round-bottom tubes, and washed with flow cytometry staining buffer (Thermo Fisher Scientific). For flow cytometry analysis, cells were stained using monoclonal antibodies: anti-CD69-APC, anti-CD4-FITC, anti-CD8-BV510, and anti-PD1-PECy7 (Becton Dickinson, BD). Following 20 min of incubation at room temperature, cells were washed, resuspended in PBS, and analyzed using a FACSCanto II flow cytometer (BD) and FACSDiva software (BD). The data analysis was carried out with FACSuite software (BD).

[2] = target: T5, hPD-1/hPD-L1 immune checkpoint (hPD-L1 aAPCs and Jurkat hPD-1 effector cells) (Homo sapiens, UniProt Q9NZQ7); test: hPD-1/hPD-L1 immune checkpoint blockade cell-based assay (Promega Blockade Bioassay)
T5 construct: host or cells: CHO K-1 (hPD-L1 aAPCs) and Jurkat T cells (hPD-1 effector cells)

[3] = tested on: Jurkat PD-1 Effector Cells alone or in co-culture with CHO K-1 PD-L1 aAPCs; test: Cytotoxicity / cell viability assay (tetrazolium reagent); assay type: cell-based; details: not toxic up to the stated final concentration
human PD-L1 [4] = target: T6, human PD-L1 (Homo sapiens, UniProt Q9NZQ7); test: 1H NMR binding assay; details: molar ratio 1:1
T6 construct: hPD-L1 residues, 18–134, C-terminal His-tag; His-tag (C); made in house; host or cells: Escherichia coli BL21 (DE3)
Experimental: The direct binding of the most prominent compounds 2k and 3d to the human PD-L1 was also confirmed with a ^1H NMR method (Figure S3).
Figure S2 ELISA assay results.
High-binding 96 well plates (Thermo Scientific, cat. 439454) were coated with 1.2 μg/ml (50 μL/well) of Fc-tagged human PD-1 (Recepton Sp. z o.o., cat. R1-001-1) and incubated overnight at 4 ◦C. The plates were warmed to room temperature, washed with wash buffer (1 x PBS, 0.05% Tween 20, pH 7.4) and blocked with 1 % BSA in 1 x PBS, pH 7.4 for 2 h. Standard curve was generated with 0.02 – 50 ug/mL His- and Fc- tagged human PD-L1 (Recepton Sp. z o.o., cat. R1-002-1). […] The bound ligand was detected with the addition of 50 μL/well biotinylated Anty-His antibody (Southern Biotech, cat. 4603-08) followed by 1 h incubation, wash steps and addition of 50 μL/well streptavidin-HRP (Thermo Scientific, cat. 21126). […] The absorbance readings were made on Tecan Spark at the wavelength 450 nm and the reference wavelength 655 nm. IC50 was calculated based on the Δ((A450-A655) from sample – (A450-A655) from background) readings fitted in the plot using a Hill’s […]
For NMR measurements, the buffer was exchanged by gel filtration to PBS pH 7.4. […] All spectra were recorded at 300 K using a Bruker Avance III 600 MHz spectrometer. […]

human PD-L1 [5] = target: T6, human PD-L1; test: MicroScale Thermophoresis (MST) binding assay, human PD-L1; details: hPD-L1
human PD-1/PD-L1 complex = target: T7, human PD-1/PD-L1 complex (Homo sapiens, UniProt Q9NZQ7); test: Competitive ELISA; assay type: binding; details: dissociation of human PD-1/PD-L1 complex
T7 construct: Fc; purchased Recepton Sp. z o.o; R1-002-1 (PD-L1); R1-001-1 (PD-1)
T7 sequence (Q9NZQ7 19-238 limits assumed, one chain of several): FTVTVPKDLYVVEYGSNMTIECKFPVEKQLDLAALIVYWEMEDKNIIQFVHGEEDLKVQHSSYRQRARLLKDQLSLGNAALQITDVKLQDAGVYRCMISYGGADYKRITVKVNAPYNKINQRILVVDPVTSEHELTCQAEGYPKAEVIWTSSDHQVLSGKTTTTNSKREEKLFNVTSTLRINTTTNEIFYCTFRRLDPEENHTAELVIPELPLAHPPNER

T4 sequence (Q9NZQ7 18-134, stated change not applied, one chain of several): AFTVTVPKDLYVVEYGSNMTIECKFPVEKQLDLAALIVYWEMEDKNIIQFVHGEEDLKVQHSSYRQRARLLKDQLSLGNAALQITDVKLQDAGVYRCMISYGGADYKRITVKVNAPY
T3 sequence (Q9NZQ7 18-134, one chain of several): as the sequence (Q9NZQ7 18-134, stated change not applied, one chain of several) above
T6 sequence (Q9NZQ7 18-134): as the sequence (Q9NZQ7 18-134, stated change not applied, one chain of several) above
T1 sequence (Q9NZQ7 19-238 limits assumed, one chain of several): as the sequence (Q9NZQ7 19-238 limits assumed, one chain of several) above
T2 sequence (Q9EP73 19-134): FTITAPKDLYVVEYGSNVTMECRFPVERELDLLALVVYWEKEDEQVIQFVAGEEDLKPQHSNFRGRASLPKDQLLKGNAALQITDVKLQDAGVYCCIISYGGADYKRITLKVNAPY
T5 sequence (Q9NZQ7 19-290): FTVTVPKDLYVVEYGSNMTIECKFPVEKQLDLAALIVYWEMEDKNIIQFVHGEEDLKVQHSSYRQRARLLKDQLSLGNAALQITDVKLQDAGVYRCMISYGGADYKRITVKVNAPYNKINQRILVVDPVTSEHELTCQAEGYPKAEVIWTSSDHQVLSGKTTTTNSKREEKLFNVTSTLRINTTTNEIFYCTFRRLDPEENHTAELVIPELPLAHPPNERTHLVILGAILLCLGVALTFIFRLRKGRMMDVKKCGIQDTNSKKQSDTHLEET

IC50 [1]: 13.2 ± 0.15 µM
Compound: O=C(NCCCN1CCOCC1)c1ccc(OCc2cccc(-c3ccccc3)c2Br)c(Br)c1 [2f, 4-(3-(3-Bromo-4-((2-bromo-[1,1′-biphenyl]-3-yl)methoxy)benzamido)propyl)morpholin-4-ium Hydrochloride]

MST KD (murine PD-L1): no activity
Compound: Cc1c(COc2cc(OCc3cccc(C#N)c3)c(CN3C[C@H](O)C[C@@H]3C(=O)O)cc2Cl)cccc1-c1ccc2c(c1)OCCO2 [BMS-1166, reference compound]

dissociation of the wtPD-1/PD-L1 complex (wtPD-1/PD-L1 complex): not potent enough to dissociate
Compound: OCc1cccc(-c2ccccc2)c1F [1c]
dissociation of the mutant N66A-PD-1/PD-L1 complex (N66A-PD-1/PD-L1 complex): capable of dissociating; also recorded: all PD-1 peaks are restored; also recorded: dissociated

IC50 [1]: 0.522 ± 0.0005 µM
Compound: O=C(O)[C@@H]1CCCCN1Cc1ccc(OCc2cccc(-c3ccccc3)c2Br)cc1 [2h, (S)-1-(4-((2-Bromo-[1,1′-biphenyl]-3-yl)methoxy)benzyl)piperidine-2-carboxylic Acid]

Compound: atezolizumab: an anti-PD-L1 therapeutic antibody [reference compound]
expression of PD-1 receptor on the surface of CD4+ and CD8+ T cells (primary human T cells): significant increase | expression of early T-cell activation marker CD69 (primary human T cells): Neither of the two molecules was able to increase

IC50 [1]: 0.204 ± 0.0064 µM | EC50 ([2]; cell based assay, Table S1): > 500 µM
Compound: COc1cc(CN2CCCC[C@H]2C(=O)O)ccc1OCc1cccc(-c2ccccc2)c1Br [2j, (S)-1-(4-((2-Bromo-[1,1′-biphenyl]-3-yl)methoxy)-3-methoxybenzyl)piperidine-2-carboxylic Acid]

EC50 ([2]; reference antibody, Hill fit): 0.0002 ± 6e-05 µM
Compound: Durvalumab: a clinically relevant PD-L1-blocking antibody; positive control anti-hPD-L1 monoclonal antibody [reference compound]

IC50 [1]: 49.1 ± 0.15 µM
Compound: O=C(O)[C@@H]1C[C@H](O)CN1Cc1ccc(OCc2cccc(-c3ccccc3)c2-c2ccccc2)c(Br)c1 [4f, (2S,4S)-1-(4-([1,1′:2′,1″-Terphenyl]-3′-ylmethoxy)-3-bromobenzyl)-4-hydroxypyrrolidine-2-carboxylic Acid]

dissociation of the wtPD-1/PD-L1 complex (wtPD-1/PD-L1 complex): not able to dissociate
Compound: BrCc1cccc(-c2ccccc2)c1Br [1a, 2-bromo-3-(bromomethyl)-1,1′-biphenyl]
dissociation of the mutant N66A-PD-1/PD-L1 complex (N66A-PD-1/PD-L1 complex): capable of dissociating; also recorded: all PD-1 peaks are restored; also recorded: dissociated

dissociation of the wtPD-1/PD-L1 complex (wtPD-1/PD-L1 complex): dissociated | Kd (human PD-L1 [5]): 4.04 nM and 4 nM | level of the Jurkat T cell activation ([2]; at a 50 μM concentration): 2.1 fold | IC50 (human PD-1/PD-L1 complex): 1.47 ± 0.05 nM | MST KD (murine PD-L1): no activity
Compound: O=C(O)[C@@H]1CCCCN1Cc1ccc(OCc2cccc(-c3ccccc3)c2Br)c(Br)c1 [2k, (S)-1-(3-Bromo-4-((2-bromo-[1,1′-biphenyl]-3-yl)methoxy)benzyl)piperidine-2-carboxylic Acid]
toxic concentration in cell viability assay [3]: > 100 µM | direct binding to hPD-L1 (1H NMR) (human PD-L1 [4]): caused flattening of 2D spectra characteristic for the dimerization; also recorded: caused a characteristic dimerization of hPD-L1 | expression of PD-1 receptor on the surface of CD4+ and CD8+ T cells (primary human T cells): significant increase | expression of early T-cell activation marker CD69 (primary human T cells): Neither of the two molecules was able to increase

Kd (human PD-L1 [5]): 3.17 nM and 3.2 nM | IC50 [1]: 0.0122 ± 0.0002 µM | EC50 ([2]; cell based assay, Table S1): 6.7 ± 1.1 µM | MST KD (murine PD-L1): no activity
Compound: CC(=O)NCCNCc1ccc(OCc2cccc(-c3ccccc3)c2Br)c(Br)c1 [2g, N-(2-((3-Bromo-4-((2-bromo-[1,1′-biphenyl]-3-yl)methoxy)benzyl)amino)ethyl)acetamide]
toxicity of the compound observed above concentration ([2]; EC50 estimated on partial data because of it): above 10 μM

IC50 [1]: > 100 µM
Compound: OCc1cccc(-c2ccccc2)c1-c1ccccc1 [1b, [1,1′:2′,1″-terphenyl]-3′-ylmethanol]

solubility in DMSO/water conditions ([2]; disallowed data collection for the two highest concentrations): solubility problems
Compound: N#Cc1cc(COc2cc(OCc3cccc(-c4ccccc4)c3Br)c(Cl)cc2CN2C[C@@H](O)C[C@H]2C(=O)O)ccn1 [3d]
direct binding to hPD-L1 (1H NMR) (human PD-L1 [4]): caused flattening of 2D spectra characteristic for the dimerization; also recorded: caused a characteristic dimerization of hPD-L1

MST KD (murine PD-L1): no activity
Compound: Cc1cc(CN2CCCC[C@H]2C(=O)O)ccc1OCc1cccc(-c2ccccc2)c1Br [2i, (S)-1-(4-((2-Bromo-[1,1′-biphenyl]-3-yl)methoxy)-3-methylbenzyl)piperidine-2-carboxylic Acid]

IC50 [1]: 29.4 ± 0.45 µM
Compound: N#Cc1ccc(-c2cccc(COc3ccc(C=O)cc3Br)c2Br)cc1 [4g, 2′-Bromo-3′-((2-bromo-4-formylphenoxy)methyl)-[1,1′-biphenyl]-4-carbonitrile]
